This note sets out measurements from ChEMBL document CHEMBL1201862, “PubChem BioAssay data set” (2004).

The structures appear in SMILES notation.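 Assay format: 96-well plates, 48-hour exposure. GI50 is the concentration that inhibits growth by half.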 Activity calls are given as the source filed them. Rule as the data show it: active = GI50 up to about 1.1 µM and inactive = higher.

Among the test systems are HCT-116; A549; OVCAR-5; PC-3; SW-620; OVCAR-8; A498; SK-MEL-28; T47D; SN12C; COLO 205; CAKI-1; DU-145; MDA-MB-435; UACC-62; MDA-MB-231; NCI-H522; HT-29; Hs-578T.
Experiment in all cases: NCI anticancer screen, dose series, 48 h

On to `CO/C(=N\N=C\c1cc(OC)ccc1OC)c1ccncc1`, for which the GI50 in the test with HCT-116, in the test with A549, in the test with OVCAR-5, with PC-3, in the test on SW-620 and in the test on OVCAR-8 was > 10 µM (inactive) throughout. Moreover, the GI50 in the test on A498, with SK-MEL-28, with T47D, in the test on SN12C and in the test on COLO 205 was > 10 µM (inactive) each time.
With `COc1cc(-c2oc3c(OC)c(O)c(OC)c(O)c3c(=O)c2OC)cc(O)c1OC`, the GI50 in the test with HCT-116 was 36.1 µM (inactive); with CAKI-1, 24.5 µM (inactive); in the test with A549, 46.9 µM (inactive); in the test on OVCAR-5 it was 56.6 µM (inactive); with DU-145, 37.1 µM (inactive); in the test on PC-3, 33.3 µM (inactive). Besides, the GI50 with SW-620 was 44.3 µM (inactive); in the test with MDA-MB-435, 19.6 µM (inactive); in the test on OVCAR-8 it was 37.9 µM (inactive); in the test on UACC-62, 22.4 µM (inactive); in the test with MDA-MB-231 it was 46.2 µM (inactive); with A498 it was 22.5 µM (inactive). Further, the GI50 in the test on SK-MEL-28 was 47.5 µM (inactive); with T47D it was 32.8 µM (inactive); in the test on SN12C, 34.4 µM (inactive); in the test with NCI-H522 it was 24.3 µM (inactive); in the test with COLO 205, 67.8 µM (inactive); in the test on HT-29, 30.8 µM (inactive).
Take `COc1ccc2c(c1)[n+]([O-])c(/C(C)=N/NC(=O)CC#N)c[n+]2[O-]`: the GI50 is 83.9 µM (inactive) in the test with HCT-116; 35.2 µM (inactive) with CAKI-1; > 100 µM (inactive) with A549; > 100 µM (inactive) in the test on OVCAR-5; 11.1 µM (inactive) with SW-620; > 100 µM (inactive) with OVCAR-8. Also, the GI50 with UACC-62 is > 100 µM (inactive); in the test on A498, > 100 µM (inactive); in the test on SK-MEL-28, > 100 µM (inactive); in the test on SN12C, > 100 µM (inactive); in the test on NCI-H522 it was > 100 µM (inactive); with COLO 205, 83.4 µM (inactive). Also, in the test on HT-29, the GI50 was > 100 µM (inactive).
Turning to `N[C@H](Cc1ccc2oc3cc(=O)c4ccccc4c-3nc2c1)C(=O)O`, the GI50 was 46.3 µM (inactive) in the test with HCT-116; > 100 µM (inactive) in the test on CAKI-1; 33.7 µM (inactive) in the test with A549; 65.9 µM (inactive) in the test on OVCAR-5; 21.7 µM (inactive) with DU-145; 39.6 µM (inactive) in the test on Hs-578T. Also, the GI50 was 46.7 µM (inactive) with SW-620; 15.5 µM (inactive) in the test on MDA-MB-435; 30.5 µM (inactive) with OVCAR-8; 26.7 µM (inactive) in the test with UACC-62; 62.7 µM (inactive) in the test with MDA-MB-231; 49.7 µM (inactive) in the test with A498. For the same compound, the GI50 in the test on SK-MEL-28 is > 100 µM (inactive); in the test on T47D, > 100 µM (inactive); with SN12C, 42.5 µM (inactive); in the test with NCI-H522, 44.7 µM (inactive); in the test on COLO 205, 30.3 µM (inactive); with HT-29, 29.2 µM (inactive).
In the case of `O=[N+]([O-])/C(Cl)=C(\Sc1ccccc1)C(Cl)=C(Cl)Cl`, the GI50 in the test on HCT-116 is 0.147 µM (active); in the test on CAKI-1, 1.83 µM (inactive); in the test with A549, 0.229 µM (active); with OVCAR-5, 1.86 µM (inactive); in the test on DU-145, 1.71 µM (inactive); in the test on Hs-578T, 0.562 µM (active). The GI50 in the test on PC-3 was 2.01 µM (inactive); in the test with MDA-MB-435 it was 0.22 µM (active); in the test with OVCAR-8 it was 0.191 µM (active); in the test with UACC-62, 0.647 µM (active); in the test on MDA-MB-231 it was 0.264 µM (active); with A498 it was 1.72 µM (inactive). The GI50 was 1.41 µM (inactive) in the test on SK-MEL-28; 1.28 µM (inactive) with T47D; 0.373 µM (active) in the test with SN12C; 0.26 µM (active) with NCI-H522; 0.282 µM (active) in the test with COLO 205; 0.355 µM (active) in the test on HT-29.
Turning to `CCC(NC(C)c1ccccc1)C(O)c1ccc(OCc2ccccc2)c(OCc2ccccc2)c1` (centres undefined), the GI50 in the test on HCT-116 is 14.5 µM (inactive); with CAKI-1, 11.9 µM (inactive); with A549, 16 µM (inactive); in the test on OVCAR-5, 13.1 µM (inactive); in the test on DU-145, 18.2 µM (inactive); in the test with Hs-578T, 19 µM (inactive). For the same compound, the GI50 is 13.9 µM (inactive) in the test with PC-3; 4.57 µM (inactive) in the test on SW-620; 13.8 µM (inactive) in the test with MDA-MB-435; 14.1 µM (inactive) in the test on OVCAR-8; 17.5 µM (inactive) in the test on UACC-62; 8.47 µM (inactive) in the test with MDA-MB-231. Moreover, the GI50 with A498 is 24 µM (inactive); with SK-MEL-28, 19.9 µM (inactive); in the test on T47D it was 15.1 µM (inactive); with SN12C, 15.1 µM (inactive); in the test with NCI-H522, 15.7 µM (inactive); in the test on COLO 205 it was 2.23 µM (inactive). For the same compound, the GI50 in the test with HT-29 was 3.31 µM (inactive).
Consider `O=C1NCC2(CCN(CCCC3(c4ccc(F)cc4)OCCO3)CC2)N1c1ccccc1`, for which the GI50 was > 100 µM (inactive) in the test on HCT-116; 50.1 µM (inactive) in the test with CAKI-1; > 100 µM (inactive) in the test on A549; > 100 µM (inactive) in the test on OVCAR-5; > 100 µM (inactive) in the test on DU-145; > 100 µM (inactive) in the test on Hs-578T. The GI50 in the test on PC-3 was > 100 µM (inactive); in the test on SW-620, 32.7 µM (inactive); in the test with MDA-MB-435, > 100 µM (inactive); in the test with OVCAR-8, > 100 µM (inactive); with UACC-62 it was > 100 µM (inactive); in the test on MDA-MB-231, > 100 µM (inactive). Further, the GI50 in the test on A498 is 86.3 µM (inactive); in the test with SK-MEL-28, > 100 µM (inactive); in the test with T47D it was > 100 µM (inactive); in the test with SN12C, > 100 µM (inactive); with NCI-H522, > 100 µM (inactive); in the test on COLO 205, > 100 µM (inactive). For the same compound, the GI50 with HT-29 is 84.5 µM (inactive).
With `COc1ccc2ccccc2c1CN1CCOCCOCCN(Cc2c(OC)ccc3ccccc23)CCOCCOCC1`, the GI50 is 25.1 µM (inactive) with HCT-116; > 100 µM (inactive) in the test on CAKI-1; 98.2 µM (inactive) in the test on A549; > 100 µM (inactive) in the test with OVCAR-5; > 62.1 µM (inactive) in the test on SW-620; > 100 µM (inactive) in the test on OVCAR-8. For the same compound, the GI50 in the test with UACC-62 is > 85.5 µM (inactive); in the test with A498, > 83.4 µM (inactive); in the test on SK-MEL-28, > 45.2 µM (inactive); with SN12C it was > 69.8 µM (inactive); in the test with NCI-H522, > 60.5 µM (inactive); in the test with COLO 205 it was > 90.4 µM (inactive). In addition, in the test on HT-29, the GI50 is > 20.3 µM (inactive).
For the compound `Oc1ccc2ccccc2c1/N=N/c1ccsc1`, the GI50 was 42.7 µM (inactive) in the test with HCT-116; > 100 µM (inactive) in the test with CAKI-1; > 100 µM (inactive) with A549; > 100 µM (inactive) in the test on OVCAR-5; > 100 µM (inactive) with SW-620; > 100 µM (inactive) with OVCAR-8. Besides, the GI50 in the test on UACC-62, in the test on A498, in the test with SK-MEL-28, in the test on SN12C, with NCI-H522 and in the test with COLO 205 was > 100 µM (inactive) each time. The GI50 in the test with HT-29 was 66.8 µM (inactive).
`COc1ccc(Nc2nc3c([nH]2)c(=O)n(C)c(=O)n3C)cc1`: the GI50 in the test with CAKI-1, with A549, in the test on DU-145, in the test on PC-3, with SW-620 and in the test on MDA-MB-435 was > 10 µM (inactive) throughout. In addition, the GI50 with OVCAR-8, in the test with UACC-62, in the test with MDA-MB-231, in the test with SK-MEL-28, in the test with T47D and in the test with SN12C was > 10 µM (inactive) throughout. The GI50 in the test on COLO 205 and in the test on HT-29 was > 10 µM (inactive) in each case.
On to `CCOC(=O)C1(Cc2ccccc2)Cc2ccccc2C1=O` (centres undefined), for which the GI50 is 27.4 µM (inactive) in the test on HCT-116; 23.7 µM (inactive) with A549; 30.4 µM (inactive) in the test on OVCAR-5; 45.2 µM (inactive) with DU-145; 35.1 µM (inactive) in the test with Hs-578T; 17.6 µM (inactive) with PC-3. Besides, the GI50 in the test with SW-620 was 33.7 µM (inactive); with MDA-MB-435, 20 µM (inactive); in the test with OVCAR-8 it was 28.8 µM (inactive); with UACC-62, 20.8 µM (inactive); with MDA-MB-231, 25.9 µM (inactive); in the test on SK-MEL-28 it was 24.8 µM (inactive). The GI50 in the test with T47D is 28.6 µM (inactive); in the test on SN12C it was 27.7 µM (inactive); with COLO 205, 19.6 µM (inactive); in the test on HT-29, 23.6 µM (inactive).
Regarding `COC(=O)CSc1[nH]c2nc(C)nc(Nc3ccccc3)c2c1C#N`, the GI50 with CAKI-1, in the test with A549, with DU-145, in the test with PC-3, in the test on SW-620 and in the test with MDA-MB-435 was > 10 µM (inactive) throughout. The GI50 with OVCAR-8, in the test with UACC-62, in the test on MDA-MB-231, in the test with SK-MEL-28, in the test with T47D and in the test with SN12C was > 10 µM (inactive) throughout. For the same compound, the GI50 with COLO 205 and in the test with HT-29 was > 10 µM (inactive) in each case.
Regarding `CCOP(=S)(OCC)Oc1ccc2c(c1)OC(=O)C1(Cl)C2(C)C2(Cl)C(=O)Oc3cc(OP(=S)(OCC)OCC)ccc3C12C` (centres undefined), the GI50 in the test on HCT-116 was 12.3 µM (inactive); in the test on CAKI-1 it was 19.8 µM (inactive); with A549, 25.5 µM (inactive); with OVCAR-5, 19 µM (inactive); in the test on SW-620 it was 16.7 µM (inactive); in the test on OVCAR-8, 16.3 µM (inactive). The GI50 with UACC-62 is 12.6 µM (inactive); with A498, 25.5 µM (inactive); with SK-MEL-28, 16.5 µM (inactive); in the test with SN12C, 19.2 µM (inactive); in the test with NCI-H522, 10.4 µM (inactive); in the test on COLO 205, 19.1 µM (inactive). In the test with HT-29, the GI50 was 15.5 µM (inactive).
